Source: article PMC5947527 (Chemical Science, 2015)
“Also recorded” adds a separate entry of the source. Non-standard residues stand in square brackets, D forms with d. Residues, ends and D or L forms follow the SMILES beside them. *: point of attachment. NBD = O=[N+]([O-])c1ccc(*)c2nonc12; Nle = CCCC[C@H](N)C(=O)O; Ahx = NCCCCCC(=O)O

Assays:
[1] = Stability in ARDS bronchoalveolar lavage fluid (MALDI-TOF MS); format: in vitro ADME, human; conditions: for stability in ARDS BALF: human ARDS BALF pooled from three patients vs PBS, 5 and 30 min
Source text: To determine the ability of UBI-3 to image bacteria in the continued presence of a complex inflammatory environment, bacteria were labelled with UBI-3 in the presence of broncho-alveolar lavage fluid (BALF) retrieved from ventilated ICU patients with Acute Respiratory Distress Syndrome (ARDS). ARDS BALF was utilised as ARDS is a severe life threatening pulmonary syndrome, characterized by a massive proteolytic and oxidative inflammatory environment within the distal alveolar region.[14] […] To design out susceptible amino acid cleavage points, a number of modifications were made (Table 1) and the functional consequences assessed. The chemical approaches pursued to improve resistance to degradation included replacing amino acids at the cleavage positions with non-natural amino acids such as N-methyl or D-amino acids,[15] and cyclisation of the peptide,[16] which could have the added benefit of enhancing affinity towards bacterial membrane.[17]
The Arg–Arg bonds were identified as the prominent position of degradation (Fig. 5) and Compounds UBI-4–9 (Table 1) were synthesised with a variety of substitutions around the degradation sites. The susceptible peptide bonds at P1–P2 and P7–P8 were blocked using N-MeArg (UBI-4), and to further mask these positions, a long polyethylene glycol (PEG) chain and/or a D-amino acid were positioned at the carboxylic and/or amino termini (UBI-5–7).
We hypothesized that cyclisation of the sequence would allow for greater stability and also improve bacterial affinity and therefore cyclic variants of UBI-3 were synthesized (UBI-10 and UBI-11), which were both found to be stable in BALF for 5 minutes (Fig. 7 and S3 ESI ^†). […] However, these studies also highlighted the degradation of UBI-10 at 10 minutes, guiding the temporal constraints of Smartprobe delivery and optical imaging.
Fig. 7 UBI-10 remains stable in ARDS BALF at 5 minutes. (A) Structure of UBI-10 with breakdown products in ARDS BALF. […] TEXT PRINTED IN THE PICTURE: UBI-10: Molecular Weight: 2118.41 | Fragment A: Molecular Weight: 1923.18 | Fragment B: Molecular Weight: 1980.23 DOUBTS OF THE COPYIST ABOUT THIS PICTURE: UBI-10, Molecular Weight: very small print, 2118.41 is the best reading; the digits 8 and 4 are uncertain / Fragment A, Molecular Weight: very small print, 1923.18 is the best reading; the digits 9, 3 and 8 are uncertain / Fragment B, Molecular Weight: very small print, 1980.23 is the best reading; the digits 9, 8 and 3 are uncertain […]
Supplementary Information
A Labelled-Ubiquicidin Antimicrobial Peptide for Immediate In Situ Optical Detection of Live Bacteria in Human Alveolar Lung Tissue
Ahsan R Akram, Nicolaos Avlonitis, Annamaria Lilienkampf, Ana M Perez-Lopez, Neil McDonald, Sunay V Chankeshwara, Emma Scholefield, Christopher Haslett, Mark Bradley & Kevin Dhaliwal.
Figure S1: MALDI-TOF MS spectra for a stability study of UBI-3 in PBS and in ARDS BALF […]
Figure S2. MALDI-TOF MS spectra of modified analogues UBI-4 to UBI-9 in Phosphate Buffered Saline and ARDS BALF over a period of 5 and 30min.
Figure S3: MALDI-TOF MS spectra of UBI-11 in Phosphate Buffered Saline vs ARDS BALF […]
Figure S4. Quantified fluorescence of confocal microscopy images of the compounds UBI-3, UBI-5 and UBI-10 on three bacteria and fluorescence retention following a PBS wash.
Figure S5: Fibered confocal fluorescence microscopy imaging of human lung and Calcein AM stained Methicillin sensitive S. aureus.
Experimental Details including Tables M1-4, Figure M1 and HPLC Chromatograms.
(also on this page, place not known: Electronic Supplementary Material (ESI) for Chemical Science. This journal is © The Royal Society of Chemistry 2015)
(1 picture or pasted object on this page, not shown here) […]
BALF Retrieval: Bronchoalveolar lavage was performed in the Intensive Care Unit (ICU), as previously described. S5 Pooled samples from three patients were used for stability assays. […]
Exposure to 488 nm light was limited to 5% […]

[2] = test system: isolated human neutrophils; assay: Co-culture of bacteria and isolated human neutrophils, confocal specificity; format: cell-based
Source text: Neutrophil Isolation: Neutrophils for in vitro experiments were isolated from peripheral venous blood of healthy human volunteers (Ethical approval was obtained from the Lothian Research Ethics Committee). Blood was anticoagulated with sodium citrate (0.38% final concentration) and polymorphonuclear leukocytes were isolated via dextran sedimentation followed by centrifugation through discontinuous plasma-Percoll gradients, as previously described. S4 […]
Confocal Analysis and Fluorescence Quantification: 8-Well Lab-Tek II Confocal Chambers (VWR, PA, USA) were coated in fibronectin (for neutrophil experiments) or poly-d-lysine (for bacteria) at 37 °C for 20 minutes, then washed in PBS prior to bacterial innoculation. For co-culture assays, neutrophils were seeded on fibronectin coated wells at 1 x 10^5 neutrophils per well for 20 minutes and non-adherent neutrophils aspirated. Bacteria were added to each chamber to a final concentration of 0.5 OD595 nm with the desired final concentration of Smartprobe. A laser-scanning confocal imaging system (LSM510; Carl Zeiss, Jena, Germany), incorporating an upright Axioskop FS2 microscope (63× objective) was used for image acquisition and processing. Exposure to 488 nm light was limited to 5% of the maximum laser power in order to minimize toxicity. ‘Green’ fluorescence (for FAM and NBD) was excited with a dedicated 488 nm line and emitted light detected with meta detector (500-530 nM).
Syto nuclear and dyes were excited with a dedicated 543 nm line, and emitted light detected with meta detector (570-610 nM). Fields of view were chosen based on the counterstain and at least three fields of view were recorded for each condition. For affinity assays, following initial imaging, the fluid was aspirated and two gentle washes with PBS were performed. The chamber was re-imaged on confocal.
Analysis was with ImageJ (version 1.46r, National Institutes of Health, USA); the Syto channel was automatically thresholded (MaxEntropy, with a set threshold 0-47) and an ROI generated from this. The

| SMILES | stability in ARDS BALF ([1]; MALDI-TOF MS) | time of degradation of the peptide in ARDS BALF ([1]; human ARDS BALF, MALDI-TOF MS) [min] | labelling of neutrophils vs bacteria ([2]; bacteria with isolated human neutrophils, confocal) | time stable in ARDS BALF ([1]; human ARDS BALF, MALDI-TOF MS) [min] | time at which degradation products form in ARDS BALF ([1]; human ARDS BALF, MALDI-TOF time course) [min] | labelling of neutrophils at 10 μM ([2]; co-culture of isolated human neutrophils and methicillin sensitive S. aureus, 10 μM) | labelling of neutrophils at 50 μM ([2]; co-culture of isolated human neutrophils and methicillin sensitive S. aureus, 50 μM) |
| --- | --- | --- | --- | --- | --- | --- | --- |
| CCCC[C@H](NC(=O)[C@H](CCCNC(=N)N)NC(=O)[C@H](CCCNC(=N)N)NC(=O)[C@H](CCCCN)NC(=O)[C@H](C)NC(=O)[C@H](CCCNC(=N)N)NC(=O)CNC(=O)[C@@H](NC(=O)CCCCCNc1ccc([N+](=O)[O-])c2nonc12)[C@@H](C)O)C(=O)N[C@@H](CCC(N)=O)C(=O)N[C@@H](Cc1ccc(O)cc1)C(=O)N[C@@H](CC(N)=O)C(=O)N[C@@H](CCCNC(=N)N)C(=O)N[C@@H](CCCNC(=N)N)C(N)=O [UBI-3] ({NBD-Ahx}-TGRAKRR[Nle]QYNRR-NH2) | Unstable in ARDS BALF | < 5 | labels bacteria but not isolated human neutrophils | – | – | – | – |
| CCCC[C@@H]1NC(=O)[C@H](CCCNC(=N)N)NC(=O)[C@H](CCCNC(=N)N)NC(=O)[C@H](CCCCN)NC(=O)[C@H](C)NC(=O)[C@H](CCCNC(=N)N)NC(=O)CNC(=O)[C@H]([C@@H](C)O)NC(=O)[C@@H](NC(=O)CCCCCNc2ccc([N+](=O)[O-])c3nonc23)CCCCNC(=O)CNC(=O)[C@H](CCCNC(=N)N)NC(=O)[C@H](CCCNC(=N)N)NC(=O)[C@H](CC(N)=O)NC(=O)[C@H](Cc2ccc(O)cc2)NC(=O)[C@H](CCC(N)=O)NC1=O [UBI-10] | Improved stability in ARDS BALF | – | – | 5 | 10 | retained bacterial specificity over neutrophils; also recorded: no labelling of neutrophils | some neutrophil labelling was observed; also recorded: occasional neutrophil labelling was observed |
